The supplement of paper PMC10307832

What was measured:
Test in all cases: relative viability (nuclei count vs DMSO), 5 days (fraction); higher = more cells survive
Tipifarnib = compound: Cn1cncc1[C@@](N)(c1ccc(Cl)cc1)c1ccc2c(c1)c(-c1cccc(Cl)c1)cc(=O)n2C [Tipifarnib]
Outline: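 Lung cancer cell lines received five library-drug doses (not always all listed) spaced by √10, pinned on vehicle-anchored 1536-well plates after an overnight stay at 37 °C. Five days later, with no medium change, nuclei were Hoechst-stained, imaged at 4× and counted with MetaXpress. Viability is treated-well nuclei relative to vehicle-well nuclei, as a median across plates. Passing plates had control CV below 25% and at least one doubling.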

Tipifarnib + Navitoclax = compound: Cn1cncc1[C@@](N)(c1ccc(Cl)cc1)c1ccc2c(c1)c(-c1cccc(Cl)c1)cc(=O)n2C [Tipifarnib] + CC1(C)CCC(c2ccc(Cl)cc2)=C(CN2CCN(c3ccc(C(=O)NS(=O)(=O)c4ccc(N[C@H](CCN5CCOCC5)CSc5ccccc5)c(S(=O)(=O)C(F)(F)F)c4)cc3)CC2)C1 [Navitoclax] (partner 0.5 µM)
Outline: (§1)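 Nuclei were stained with Hoechst during a one-step fixation (final 0.05% Triton X-100, 1% formaldehyde, 1 ug/ml Hoechst) carried out 5 days after dosing, then counted on 4× images. The cells, lung cancer lines in 1536-well plates, had been dosed by pin tool the day after seeding with one drug alone or a fixed anchor-drug dose plus five library-drug doses (not always all listed) in √10 steps. Relative viability is the nuclei count in treated wells divided by that in vehicle wells, and each value is the median of duplicate plates.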

Tipifarnib + Tozasertib = compound: Cn1cncc1[C@@](N)(c1ccc(Cl)cc1)c1ccc2c(c1)c(-c1cccc(Cl)c1)cc(=O)n2C [Tipifarnib] + Cc1cc(Nc2cc(N3CCN(C)CC3)nc(Sc3ccc(NC(=O)C4CC4)cc3)n2)n[nH]1 [Tozasertib] (partner 0.1 µM)
Outline: as §1

Tipifarnib + Phenformin = compound: Cn1cncc1[C@@](N)(c1ccc(Cl)cc1)c1ccc2c(c1)c(-c1cccc(Cl)c1)cc(=O)n2C [Tipifarnib] + N=C(N)NC(=N)NCCc1ccccc1 [Phenformin] (partner 250 µM)
Outline: as §1

Row | Cell Line | relative viability (Tipifarnib; 0.01 µM) | relative viability (Tipifarnib; 0.03162 µM) | relative viability (Tipifarnib; 0.1 µM) | relative viability (Tipifarnib; 0.3162 µM) | relative viability (Tipifarnib; 1 µM) | relative viability (Tipifarnib + Navitoclax; first compound 0.01 µM) | relative viability (Tipifarnib + Navitoclax; first compound 0.03162 µM) | relative viability (Tipifarnib + Navitoclax; first compound 0.1 µM) | relative viability (Tipifarnib + Navitoclax; first compound 0.3162 µM) | relative viability (Tipifarnib + Navitoclax; first compound 1 µM) | relative viability (Tipifarnib + Tozasertib; first compound 0.01 µM) | relative viability (Tipifarnib + Tozasertib; first compound 0.03162 µM) | relative viability (Tipifarnib + Tozasertib; first compound 0.1 µM) | relative viability (Tipifarnib + Tozasertib; first compound 0.3162 µM) | relative viability (Tipifarnib + Tozasertib; first compound 1 µM) | relative viability (Tipifarnib + Phenformin; first compound 0.01 µM) | relative viability (Tipifarnib + Phenformin; first compound 0.03162 µM) | relative viability (Tipifarnib + Phenformin; first compound 0.1 µM) | relative viability (Tipifarnib + Phenformin; first compound 0.3162 µM) | relative viability (Tipifarnib + Phenformin; first compound 1 µM)
1 | LCLC-97TM1 | 0.98 | 0.707 | 0.878 | 0.703 | 0.19 | 0.557 | 0.359 | 0.241 | 0.446 | 0.19 | 0.154 | 0.18 | 0.186 | 0.148 | 0.215 | 0.423 | 0.382 | 0.446 | 0.355 | 0.231
2 | LK-2 | 1.03 | 0.857 | 0.809 | 0.615 | 0.607 | 1.08 | 0.65 | 0.7 | 0.421 | 0.373 | 0.158 | 0.173 | 0.189 | 0.157 | 0.162 | 0.471 | 0.11 | 0.428 | 0.248 | 0.184
3 | LOU-NH91 | 0.912 | 0.841 | 0.908 | 0.771 | 0.558 | 0.682 | 0.633 | 0.663 | 0.483 | 0.398 | 0.61 | 0.524 | 0.329 | 0.464 | 0.441 | 0.652 | 0.589 | 0.688 | 0.569 | 0.414
4 | LU99A | 1 | 0.836 | 0.643 | 0.556 | 0.394 | 0.668 | 0.618 | 0.488 | 0.455 | 0.356 | 0.261 | 0.249 | 0.223 | 0.232 | 0.223 | 0.918 | 0.623 | 0.515 | 0.404 | 0.359
5 | LXF-289 | 0.985 | 0.943 | 1 | 0.894 | 0.771 | 0.936 | 0.959 | 0.87 | 0.829 | 0.856 | 0.224 | 0.192 | 0.21 | 0.142 | 0.152 | 0.518 | 0.494 | 0.494 | 0.418 | 0.175
6 | NCI-H23 | 1.09 | 0.767 | 0.765 | 0.539 | 0.337 | 1.11 | 0.883 | 0.657 | 0.562 | 0.406 | 0.346 | 0.371 | 0.384 | 0.253 | 0.259 | 0.845 | 0.752 | 0.564 | 0.435 | 0.346
7 | NCI-H322M | 0.965 | 1.06 | 0.977 | 0.805 | 0.786 | 1.18 | 1.2 | 1.31 | 0.971 | 1.19 | 0.55 | 0.492 | 0.511 | 0.417 | 0.46 | 0.868 | 0.749 | 0.799 | 0.682 | 0.66
8 | NCI-H441 | 1.33 | 0.751 | 0.718 | 0.568 | 0.393 | 0.498 | 0.255 | 0.481 | 0.294 | 0.253 | 0.671 | 0.554 | 0.528 | 0.356 | 0.439 | 0.984 | 0.619 | 0.465 | 0.525 | 0.329
9 | NCI-H460 | 0.989 | 0.963 | 0.727 | 0.538 | 0.149 | 1.13 | 0.905 | 0.531 | 0.252 | 0.0922 | 0.625 | 0.51 | 0.216 | 0.15 | 0.0888 | 0.516 | 0.376 | 0.295 | 0.224 | 0.0277
10 | NCI-H520 | 1.02 | 0.9 | 0.947 | 0.658 | 0.504 | 1.24 | 1.03 | 0.917 | 0.965 | 0.72 | 0.404 | 0.4 | 0.348 | 0.335 | 0.336 | 0.591 | 0.319 | 0.447 | 0.425 | 0.267
11 | NCI-H596 | 0.982 | 0.964 | 0.918 | 0.724 | 0.587 | 1.05 | 0.78 | 0.72 | 0.739 | 0.64 | 1.05 | 0.687 | 0.713 | 0.722 | 0.589 | 0.801 | 0.745 | 0.663 | 0.574 | 0.658
12 | NCI-H647 | 0.883 | 0.807 | 0.727 | 0.404 | 0.196 | 0.983 | 0.813 | 0.822 | 0.397 | 0.37 | 0.21 | 0.126 | 0.178 | 0.101 | 0.14 | 0.499 | 0.353 | 0.469 | 0.262 | 0.114
13 | NCI-H727 | 1.16 | 1.11 | 0.876 | 0.685 | 0.645 | 0.622 | 0.53 | 0.421 | 0.41 | 0.277 | 0.809 | 0.598 | 0.624 | 0.608 | 0.444 | 0.529 | 0.501 | 0.544 | 0.617 | 0.539
14 | NCI-H838 | 0.9 | 0.892 | 0.741 | 0.722 | 0.621 | 1.09 | 0.978 | 0.932 | 0.854 | 0.862 | 0.254 | 0.286 | 0.248 | 0.214 | 0.252 | 0.547 | 0.504 | 0.421 | 0.44 | 0.389
15 | NCI-H1355 | 1.04 | 0.852 | 0.68 | 0.675 | 0.607 | 0.906 | 0.791 | 0.767 | 0.614 | 0.628 | 0.474 | 0.408 | 0.321 | 0.349 | 0.329 | 0.427 | 0.44 | 0.429 | 0.403 | 0.344
16 | NCI-H1395 | 0.808 | 0.823 | 0.659 | 0.606 | 0.492 | 1.17 | 0.936 | 0.978 | 0.835 | 0.799 | 0.659 | 0.681 | 0.567 | 0.498 | 0.556 | 0.444 | 0.398 | 0.428 | 0.436 | 0.348
